Legend:
[1] = tested on: epididymal fat pads; test: Epididymal fat pad weight and diameter in HFD mice; format: in vivo
Procedure: Mice liver and epididymal fat pads were cut and soaked in formalin, dehydrated through graded alcohols and embedded in paraffin. Specimens of liver tissues and epididymal fat pads fixed with formalin (4%) were embedded in paraffin for one hour at 4° C., cut into 4-μm-thick sections, and subjected to H&E staining before examination by light microscope.

[2] = tested on: PPARγ; test: HFD-induced PPARγ expression in liver; format: in vivo, mice
Procedure: In the experiment, C57BL/6J male mice (21-22 g), after fasting, were fed an HFD as a model of hyperlipidemia for 8 weeks. During the 2 month experiments, mice fasted for one night before the experiment was changed from a standard diet (STD) to an HFD and then the mice were randomly divided into 13 groups, including a protection group, 2 control and 10 treatment groups. Six mice were used in each group. […] Liver from the protection group supplemented with KMUP-1 HCl (1 mg/kg/day) were used to determine the HMG CoA reductase expression. Each group of mice had free access to drinking water from week 1 to week 14. Tap water was used to normalize mineral nutrition.
For the expression of SR-B1, HMGR, PPARγ and ROCK II, isolated liver tissues were cut into small chips and placed into an extraction buffer (Tris 10 mM, pH 7.0, NaCl 140 mM, PMSF 2 mM, DTT 5 mM, NP-40 0.5%, pepstatin A 0.05 mM and leupeptin 0.2 mM) for hepatic protein extraction, and centrifuged at 20,000×g for 30 minutes. The obtained protein extract was boiled to a ratio of 4:1 with a sample buffer (Tris 100 mM, pH 6.8, glycerol 20%, SDS 4% and bromophenol blue 0.2%). Electrophoresis was performed using 10% SDS-polyacrylamide gel (1 hour, 100 V, 40 mA, 20 μg protein per lane).
Separated proteins, after 3 repeated centrifugations to discard up-layer tissue lipid in purity, were transferred to PVDF membranes treated with 5% fat-free milk powder to block the nonspecific IgGs (90 minutes, 100 V) and incubated for 1 hour with specific protein antibody. The blot was then incubated with anti-mouse or anti-goat IgG linked to alkaline phosphatase (1:1000) for 1 hour.

[3] = tested on: ABCA1; test: HFD-induced ABCA1 expression in liver; format: in vivo, mice
[4] = tested on: ROCK II; test: ROCK II expression in HepG2 cells; format: cell-based
Procedure: (§1) The HepG2 hepatoma cell line was purchased from the American Type Culture Collection (ATCC, Manassas, Va., U.S.A.). Cells were cultured in Dulbecco's Modified Eagle's Medium (DMEM). […] Then the targeted drugs solution was incubated with the cells for 24 hours, followed by protein extraction. […] HepG2 cells were treated with various concentrations of targeted drugs for 24 hours. Reactions were terminated by washing twice with cold PBS, and the cells were then harvested. Proteins in the whole-cell lysate were homogenized in an ice-cold lysis buffer and a protease inhibitor (Sigma-Aldrich, St. Louis, Mo., U.S.A.). The homogenate was centrifuged at 90,000×g for 15 minutes at 4° C., and supernatant was recovered as the total cellular protein. Cytosolic and membrane fractions of HepG2 cells were prepared using a CNM (Cytosol Nuclear Membrane) compartmental protein extraction kit (BioChain Institute Inc., Hayward, Calif., U.S.A.) according to the manufacturer's instructions. All of the fractionated protein solutions were stored at -80° C. until analysis. To measure the expression levels of proteins by drugs, the total cell protein was extracted after incubation with treatments for 24 hours and then Western blotting analysis was performed as described previously.

[5] = tested on: PPARγ; test: PPARγ expression in HepG2 cells; format: cell-based; settings: for PPARγ expression: 10^−5 M, 24 hours, Control 100, Vehicle 260
Procedure: as §1, with “−80°” for “-80°”

[6] = tested on: ABCA1; test: ABCA1 expression in HepG2 cells; format: cell-based; settings: for ABCA1 expression: 10^−5 M, 24 hours, Control 100, Vehicle 110
Procedure: as §1, with “−80°” for “-80°”

[7] = 10^−5 M, 24 hours, Control 100, Vehicle 88
[8] = HepG2 cells, GGPP (10 μM) + drug 10^−5 M
[9] = HepG2 cells, GGPP (10 μM) + drug 10^−6 M
[10] = HepG2 cells, GGPP (10 μM) + drug 10^−7 M
[11] = HepG2 cells, GGPP (10 μM) + drug 10^−8 M
[12] = HepG2 cells, GGPP (10 μM) + drug 10^−9 M
[13] = Simva 5 mg/kg, CTL 100 (Table 9)

Cn1c(=O)c2c(ncn2CCN2CCN(c3ccccc3Cl)CC2)n(C)c1=O [KMUP-1, 7-[2-[4-(2-chlorophenyl)piperazinyl]ethyl]-1,3-dimethylxanthine]
Fat pads diameter ([1]; HFD mice 14 weeks, KMUP-1 2.5 mg/kg/day, Control 46): 28 μm | Weight of fat pads (R) ([1]; HFD mice, KMUP-1 2.5 mg/kg/day for 14 weeks, Control 165): 120 mg | Weight of fat pads (L) ([1]; HFD mice, KMUP-1 2.5 mg/kg/day for 14 weeks, Control 170): 96 mg | PPARγ ([2]; HFD mice, 1 mg/kg, CTL 100): 53% | PPARγ ([2]; HFD mice, 2.5 mg/kg, CTL 100): 249% | PPARγ ([2]; HFD mice, 5 mg/kg, CTL 100): 245% | ABCA1 ([3]; HFD mice, 1 mg/kg, CTL 100): 98% | ABCA1 ([3]; HFD mice, 2.5 mg/kg, CTL 100): 190% | ABCA1 ([3]; HFD mice, 5 mg/kg, CTL 100): 200% | ROCK II expression [4, 7]: 41 | ROCKII ([4]; FPP (10 μM) + drug 10^−5 M): 60% | ROCKII ([4]; FPP (10 μM) + drug 10^−6 M): 80% | ROCKII ([4]; FPP (10 μM) + drug 10^−7 M): 88% | ROCKII ([4]; FPP (10 μM) + drug 10^−8 M): 86% | ROCKII ([4]; FPP (10 μM) + drug 10^−9 M): 84% | ROCKII ([4]; GGPP (10 μM) + drug 10^−5 M): 40% | ROCKII ([4]; GGPP (10 μM) + drug 10^−6 M): 60% | ROCKII ([4]; GGPP (10 μM) + drug 10^−7 M): 108% | ROCKII ([4]; GGPP (10 μM) + drug 10^−8 M): 120% | ROCKII ([4]; GGPP (10 μM) + drug 10^−9 M): 112% | ROCK II expression ([4]; Rp-8-pCPT-cGMPS + KMUP-1 (10 μM), Control 100): 170 | expression of PPARγ ([5]; HepG2, 10^−9-10^−5 M): increased | increase of PPARγ ([5]; HepG2 cells): 2-3 folds | PPARγ expression ([5]; HepG2 cells): 595 | PPARγ ([5]; HepG2 cells, FPP (10 μM) + drug 10^−5 M): 138% | PPARγ ([5]; HepG2 cells, FPP (10 μM) + drug 10^−6 M): 140% | PPARγ ([5]; HepG2 cells, FPP (10 μM) + drug 10^−7 M): 142% | PPARγ ([5]; HepG2 cells, FPP (10 μM) + drug 10^−8 M): 84% | PPARγ ([5]; HepG2 cells, FPP (10 μM) + drug 10^−9 M): 72% | PPARγ [5, 8]: 120% | PPARγ [5, 9]: 106% | PPARγ [5, 10]: 108% | PPARγ [5, 11]: 90% | PPARγ [5, 12]: 78% | expression of ABCA1 ([6]; HepG2, 10^−9-10^−5 M): increased | ABCA1 expression ([6]; HepG2 cells): 200 | expression of ABCA1 suppressed by FPP or GGPP ([6]; HepG2 cells, FPP or GGPP (10 μM) + 10^−9-10^−5 M): reversed

CCC(C)(C)C(=O)O[C@H]1C[C@@H](C)C=C2C=C[C@H](C)[C@H](CC[C@@H]3C[C@@H](O)CC(=O)O3)[C@H]21 [Simva, Simvastatin, reference compound]
PPARγ [2, 13]: 280% | ABCA1 [3, 13]: 100% | ROCK II expression [4, 7]: 45 | ROCKII ([4]; GGPP (10 μM) + drug 10^−5 M): 210% | ROCKII ([4]; GGPP (10 μM) + drug 10^−6 M): 220% | ROCKII ([4]; GGPP (10 μM) + drug 10^−7 M): 200% | ROCKII ([4]; GGPP (10 μM) + drug 10^−8 M): 214% | ROCKII ([4]; GGPP (10 μM) + drug 10^−9 M): 210% | PPARγ expression ([5]; HepG2 cells): 350 | PPARγ [5, 8]: 46% | PPARγ [5, 9]: 46% | PPARγ [5, 10]: 44% | PPARγ [5, 11]: 40% | PPARγ [5, 12]: 46% | ABCA1 expression ([6]; HepG2 cells): 146

Source: US20190008870A1, “COMPOSITIONS AND METHODS FOR LIPID METABOLISM DISORDER” (JANSFAT BIOTECHNOLOGY CO., LTD., priority 2016, published 2019)
